Target: T1, human α2A (α2 -C10)-adrenoceptor (Homo sapiens, UniProt P08913)
T1 construct: expressed in transfected cells; host or cells: S115 cells (recombinant mammalian S115 cell line), crude particulate homogenate
T1 sequence (P08913 1-465): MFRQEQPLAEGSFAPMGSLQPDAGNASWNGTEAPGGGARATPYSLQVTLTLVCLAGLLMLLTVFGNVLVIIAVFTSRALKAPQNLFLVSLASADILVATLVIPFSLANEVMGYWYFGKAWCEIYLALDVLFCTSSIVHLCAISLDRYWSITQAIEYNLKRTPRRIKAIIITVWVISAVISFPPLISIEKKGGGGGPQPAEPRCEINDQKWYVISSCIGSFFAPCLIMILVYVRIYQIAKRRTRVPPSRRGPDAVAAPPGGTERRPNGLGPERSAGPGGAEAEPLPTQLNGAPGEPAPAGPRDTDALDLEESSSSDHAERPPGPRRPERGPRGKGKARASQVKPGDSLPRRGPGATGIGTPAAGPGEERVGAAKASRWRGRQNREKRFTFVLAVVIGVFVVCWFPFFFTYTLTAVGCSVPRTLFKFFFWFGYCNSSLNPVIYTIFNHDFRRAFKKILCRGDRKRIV
Assay: [3H]-rauwolscine radioligand receptor binding (competition) assay, α2A-adrenoceptor
Settings: recombinant mammalian S115 cell line; 1 nM [3H]-rauwolscine; 50 mM KH2PO4 pH 7.5; 30 min at 25° C.; read-out: α2A aff (Ki values)
Description: The affinity of the test compounds on the α2 -adrenoceptor was established using the recombinant mammalian S115 cell line expressing the human α2A (α2 -C10)-adrenoceptor (7) in a radioligand receptor binding assay. The cells were harvested and suspended in 30 v/w of 50 mM Tris with 5 mM EDTA (pH 7.5 at 4° C.) and homogenized in Teflon-glass homogenizer. Cell homogenate was then centrifuged twice at 47,800×g (Sorvall RC-5C) for 30 min at 4° C. with re-suspension by two strokes in Tris/EDTA buffer. The final pellet was re-suspended in ten v/w of incubation buffer (50 mM KH2 PO4 buffer, pH 7.5 at 25° C.) and distributed in aliquots to be stored at -80° C. for later use.
In a competition binding experiment, the radioligands were incubated at 1 nM [^3 H]-rauwolscine with the cell suspension (20-50 μg of total protein per tube) with or without presence of a test compound in 50 mM KH2 PO4 (pH 7.5 at 25° C.) in a total volume of 0.25 ml. Non-specific binding of the radioligand was determined using 0.1 mM oxymetazoline. After a 30 min incubation at 25° C., incubation was terminated by rapid filtration through GF/B filters using a cell harvester. Inhibition experiments were analysed using a non-linear regression curve-fitting computer program to obtain Ki values.

SMILES	Ki
CN1CCc2cc(OCC3CCCCC3)ccc2C1 [Compound 5i, 6-cyclohexylmethoxy-2-methyl-1,2,3,4-tetrahydroisoquinoline]	977 nM
CN1CCc2cccc(OCc3ccc(F)c(F)c3)c2C1 [Compound 5f, 8-(3,4-difluorophenylmethoxy)-2-methyl-1,2,3,4-tetrahydroisoquinoline]	490 nM
CCCCCCCCCCCCCCOc1cccc2c1CCN(C)C2 [Compound 5k, 5-tetradecanyloxy-2-methyl-1,2,3,4-tetrahydroisoquinoline]	6480 nM
CCCCOc1cccc2c1CCN(CCC)C2 [Compound 5g, 5-butoxy-2-propyl-1,2,3,4-tetrahydroisoquinoline]	264 nM
CN1CCc2c(cccc2OCC2CCCCC2)C1 [Compound 5h, 5-cyclohexylmethoxy-2-methyl-1,2,3,4-tetrahydroisoquinoline]	750 nM
CCCCCCCCCCCCCCOc1cccc2c1CN(C)CC2 [Compound 5m, 8-tetradecanyloxy-2-methyl-1,2,3,4-tetrahydroisoquinoline]	25000 nM
CN1CCc2c(cccc2OCc2ccc(F)c(F)c2)C1 [Compound 5d, 5-(3,4-difluorophenylmethoxy)-2-methyl-1,2,3,4-tetrahydroisoquinoline]	318 nM
CCCCCCCCCCCCCCOc1ccc2c(c1)CCN(C)C2 [Compound 5l, 6-tetradecanyloxy-2-methyl-1,2,3,4-tetrahydroisoquinoline]	266 nM
CN1CCc2cccc(OCC3CCCCC3)c2C1 [Compound 5j, 8-cyclohexylmethoxy-2-methyl-1,2,3,4-tetrahydroisoquinoline]	173 nM
CN1CCc2cc(OCCCCCC#N)ccc2C1 [Compound 5c, 6-(5-cyano-1-pentyloxy)-2-methyl-1,2,3,4-tetrahydroisoquinoline]	3710 nM
CN1CCc2c(cccc2OCCCCCC#N)C1 [Compound 5b, 5-(5-cyano-1-pentyloxy)-2-methyl-1,2,3,4-tetrahydroisoquinoline]	1040 nM
CN1CCc2cc(OCc3ccc(F)c(F)c3)ccc2C1 [Compound 5e, 6-(3,4-difluorophenylmethoxy)-2-methyl-1,2,3,4-tetrahydroisoquinoline]	1430 nM

— patent US6096752A, “Method for the preparation of tertiary amines, a compound useful therefor and alpha-2-receptor active tetrahydroisoquinoline derivatives” (priority 1998, dated 2000)
